In ChEMBL document CHEMBL1153774, “Chemical constituents from the aerial parts of Artemisia minor” (J Nat Prod, 2009):

Key:
[1] = biological target: Xanthine dehydrogenase/oxidase (Homo sapiens, UniProt P47989); assay: Inhibition of XOD
[2] = biological target: T1, Tyrosine-protein phosphatase non-receptor type 1 (Homo sapiens, UniProt P18031); assay: Inhibition of human recombinant PTP1B after 10 mins
T1 sequence (P18031 whole entry): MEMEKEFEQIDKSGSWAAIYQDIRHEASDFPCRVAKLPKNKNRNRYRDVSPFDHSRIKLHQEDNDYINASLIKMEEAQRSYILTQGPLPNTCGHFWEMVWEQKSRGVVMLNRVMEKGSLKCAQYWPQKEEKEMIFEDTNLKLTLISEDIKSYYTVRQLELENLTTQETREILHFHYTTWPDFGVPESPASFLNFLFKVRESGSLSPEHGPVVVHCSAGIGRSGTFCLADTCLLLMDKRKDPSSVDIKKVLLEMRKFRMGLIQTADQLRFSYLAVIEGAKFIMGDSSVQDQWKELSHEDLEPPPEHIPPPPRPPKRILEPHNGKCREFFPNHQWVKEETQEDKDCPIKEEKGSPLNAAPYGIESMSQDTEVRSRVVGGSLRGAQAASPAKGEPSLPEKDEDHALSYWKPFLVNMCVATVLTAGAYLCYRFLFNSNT

HepG2 = assay: Cytotoxicity against human HepG2 cells by SRB assay; format: functional

Sequence of Xanthine dehydrogenase/oxidase (P47989 whole entry): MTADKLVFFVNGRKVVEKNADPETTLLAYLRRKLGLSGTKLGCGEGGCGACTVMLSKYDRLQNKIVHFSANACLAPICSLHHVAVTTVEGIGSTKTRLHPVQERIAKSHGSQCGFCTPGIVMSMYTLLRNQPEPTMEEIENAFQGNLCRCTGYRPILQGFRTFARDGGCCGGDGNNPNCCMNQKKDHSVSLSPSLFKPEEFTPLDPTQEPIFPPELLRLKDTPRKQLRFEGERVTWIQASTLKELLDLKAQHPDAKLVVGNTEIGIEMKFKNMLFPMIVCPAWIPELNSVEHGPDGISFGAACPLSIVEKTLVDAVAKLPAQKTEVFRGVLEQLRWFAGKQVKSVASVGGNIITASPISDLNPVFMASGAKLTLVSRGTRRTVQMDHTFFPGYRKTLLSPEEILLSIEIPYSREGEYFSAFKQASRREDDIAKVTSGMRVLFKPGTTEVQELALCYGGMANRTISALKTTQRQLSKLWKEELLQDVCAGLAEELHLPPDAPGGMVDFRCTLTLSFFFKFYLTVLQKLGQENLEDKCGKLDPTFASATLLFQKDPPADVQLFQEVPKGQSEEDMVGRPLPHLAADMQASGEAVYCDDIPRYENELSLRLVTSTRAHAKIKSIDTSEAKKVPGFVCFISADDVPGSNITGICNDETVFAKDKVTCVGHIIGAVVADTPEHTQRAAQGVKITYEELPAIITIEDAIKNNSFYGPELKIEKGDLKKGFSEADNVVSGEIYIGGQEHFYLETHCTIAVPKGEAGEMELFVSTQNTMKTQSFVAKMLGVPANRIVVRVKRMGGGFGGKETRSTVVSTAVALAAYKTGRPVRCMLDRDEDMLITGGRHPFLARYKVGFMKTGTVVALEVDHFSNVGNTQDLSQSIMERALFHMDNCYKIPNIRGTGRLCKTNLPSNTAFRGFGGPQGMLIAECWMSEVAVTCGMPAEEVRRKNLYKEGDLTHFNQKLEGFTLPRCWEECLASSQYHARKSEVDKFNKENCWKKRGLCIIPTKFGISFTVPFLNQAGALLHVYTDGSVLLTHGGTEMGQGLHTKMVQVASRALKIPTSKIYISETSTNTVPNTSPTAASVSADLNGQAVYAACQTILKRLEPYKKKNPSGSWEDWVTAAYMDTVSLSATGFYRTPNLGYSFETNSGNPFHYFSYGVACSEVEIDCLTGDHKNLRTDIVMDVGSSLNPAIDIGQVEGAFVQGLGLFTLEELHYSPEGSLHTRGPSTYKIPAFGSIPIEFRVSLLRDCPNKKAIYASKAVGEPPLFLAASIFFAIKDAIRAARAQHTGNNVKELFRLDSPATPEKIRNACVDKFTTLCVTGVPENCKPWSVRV

COc1cc2cc(-c3cc4cc(O)c(O)cc4oc3=O)c(=O)oc2c(OC)c1O [ARTEMINORIN C]
IC50 [1]: 7.71 µM

O=C(O)/C=C/c1ccc(O)c(O)c1 [CAFFEIC ACID]
IC50 [2]: 3.06 µM

CCOC(=O)/C=C/c1ccc(O)c(O)c1 [ETHYL CAFFEATE]
GI50 (HepG2): 17.2 µM

O=c1cc(-c2ccc(O)c(O)c2)oc2cc(O)cc(O)c12 [LUTEOLIN]
IC50 [1]: 11.5 µM

CC(=O)O[C@H]1C(=O)[C@@]2(C)[C@H]([C@H](OC(=O)c3ccccc3)[C@]3(O)C[C@H](OC(=O)[C@H](O)[C@@H](NC(=O)c4ccccc4)c4ccccc4)C(C)=C1C3(C)C)[C@]1(OC(C)=O)CO[C@@H]1C[C@@H]2O [PACLITAXEL]
GI50 (HepG2): 0.059 µM
